Drawing on patent publication US9221809B2 (MERCK SHARP & DOHME CORP., priority 2011, dated 2015), this text covers IC50 for 12 compounds.

pIC50: −log10 of the molar value.

Chain of IRAK4 (Q9NWZ3 whole entry): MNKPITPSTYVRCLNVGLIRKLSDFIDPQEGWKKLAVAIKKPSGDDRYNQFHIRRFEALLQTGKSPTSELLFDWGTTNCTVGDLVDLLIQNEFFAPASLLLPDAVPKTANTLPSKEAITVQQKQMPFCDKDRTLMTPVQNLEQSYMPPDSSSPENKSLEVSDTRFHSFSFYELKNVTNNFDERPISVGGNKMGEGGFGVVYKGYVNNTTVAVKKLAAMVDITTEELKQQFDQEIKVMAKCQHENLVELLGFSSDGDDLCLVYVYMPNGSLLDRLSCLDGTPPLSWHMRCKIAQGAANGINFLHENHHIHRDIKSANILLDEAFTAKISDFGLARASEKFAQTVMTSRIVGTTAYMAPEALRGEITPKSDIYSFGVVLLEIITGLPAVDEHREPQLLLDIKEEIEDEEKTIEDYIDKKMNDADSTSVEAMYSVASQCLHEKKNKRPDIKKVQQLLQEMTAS

One experiment concerns the target IRAK4 (Homo sapiens (Human), UniProt Q9NWZ3). Description: IRAK4 kinase activity, IMAP fluorescence polarization assay. The class given is biochemical. The note with it: 100 μM ATP, 0.5 nM GST tagged IRAK4; read-out: IRAK4 IC50. The method in brief:
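Fluorescence polarization (IMAP nanoparticle binding of phosphopeptide) reports activity after a 30 min, 25 °C reaction. Conditions: 100 μM ATP, 0.5 nM GST-IRAK4, 100 nM fluorescent peptide, 10 mM Tris pH 7.2, 1 mM MgCl2, 1 mM DTT, 0.01% Tween 20.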
Background: Fluorescence polarisation rises when a labelled molecule tumbles more slowly, as on binding a larger partner.
Usually pIC50 stands for the negative decadic logarithm of the IC50, by convention in mol/L. In the case of `Cc1cccc2nc(-c3c(N[C@@H]4CCCNC4)nc(N4CCOCC4)[nH]c3=O)sc12` [Example 340, (R)-5-(7-methylbenzo[d]thiazol-2-yl)-2-morpholino-6-(piperidin-3-ylamino)pyrimidin-4(3H)-one], the pIC50 is 6.24. Still for that read-out and setting: with `Cc1ccc2sc(-c3c(N[C@@H]4CCCNC4)nc(N4CCOCC4)[nH]c3=O)nc2c1` [Example 341, 5-(5-methyl-1,3-benzothiazol-2-yl)-2-(morpholin-4-yl)-6-[[(3R)-piperidin-3-yl]amino]-3,4-dihydropyrimidin-4-one formic acid] the figure was 7.30; with `CC(C)(C)c1ccc2sc(-c3c(N[C@@H]4CCCNC4)nc(N4CCOCC4)[nH]c3=O)nc2c1` [Example 342, (R)-5-(5-tert-butylbenzo[d]thiazol-2-yl)-2-morpholino-6-(piperidin-3-ylamino)pyrimidin-4(3H)-one], 5.89.

Consider `O=c1[nH]c(N2CCOCC2)nc(N[C@@H]2CCCNC2)c1-c1nc2cc(Cl)ccc2s1` [Example 343, (R)-5-(5-chlorobenzo[d]thiazol-2-yl)-2-morpholino-6-(piperidin-3-ylamino)pyrimidin-4(3H)-one], for which the negative logarithm of the IC50 (pIC50) is 8.10. On the same count and under the same terms, with `O=c1[nH]c(N2CCOCC2)nc(N[C@@H]2CCCNC2)c1-c1nc2cccc(C3CC3)c2s1` [Example 344, 5-(7-cyclopropyl-1,3-benzothiazol-2-yl)-2-(morpholin-4-yl)-6-[[(3R)-piperidin-3-yl]amino]-3,4-dihydropyrimidin-4-one trifluoroacetic acid] the figure was 5.35; with `O=c1[nH]c(N2CCOCC2)nc(N[C@@H]2CCCNC2)c1-c1nc2cc(Br)ccc2s1` [Example 345, 5-(5-bromo-1,3-benzothiazol-2-yl)-2-(morpholin-4-yl)-6-[[(3R)-piperidin-3-yl]amino]-3,4-dihydropyrimidin-4-one], 7.72; with `O=c1[nH]c(N2CCOCC2)nc(N[C@@H]2CCCNC2)c1-c1nc2cc(C3CC3)ccc2s1` [Example 346, 5-(5-cyclopropyl-1,3-benzothiazol-2-yl)-2-(morpholin-4-yl)-6-[[(3R)-piperidin-3-yl]amino]-3,4-dihydropyrimidin-4-one trifluoroacetic acid], 6.48. `NC(=O)c1ccc2sc(-c3c(N[C@@H]4CCCNC4)nc(N4CCOCC4)[nH]c3=O)nc2c1` [Example 347, (R)-2-(2-morpholino-6-oxo-4-(piperidin-3-ylamino)-1,6-dihydropyrimidin-5-yl)benzo[d]thiazole-5-carboxamide]: the pIC50 is 8.00. The same measure, in the same setting: with `N#Cc1ccc2sc(-c3c(N[C@@H]4CCCNC4)nc(N4CCOCC4)[nH]c3=O)nc2c1` [Example 348, 2-[2-(morpholin-4-yl)-6-oxo-4-[[(3R)-piperidin-3-yl]amino]-1,6-dihydropyrimidin-5-yl]-1,3-benzothiazole-5-carbonitrile] the figure was 8.30; with `O=c1[nH]c(N2CCN(c3cccnc3)CC2)nc(N[C@@H]2CCCNC2)c1-c1nc(-c2ccc(F)cc2)cs1` [Example 349, 5-[4-(4-fluorophenyl)-1,3-thiazol-2-yl]-6-[[(3R)-piperidin-3-yl]amino]-2-[4-(pyridin-3-yl)piperazin-1-yl]-3,4-dihydropyrimidin-4-one], 7.70.

`NCCNc1cccc2sc(-c3c(N[C@@H]4CCCNC4)nc(N4CCOCC4)[nH]c3=O)nc12` [Example 356, 5-[4-[(2-aminoethyl)amino]-1,3-benzothiazol-2-yl]-2-(morpholin-4-yl)-6-[[(3R)-piperidin-3-yl]amino]-3,4-dihydropyrimidin-4-one]: the pIC50 is 7.80.

The same experiment, now with this note: 100 μM ATP; read-out: IC50.
`O=c1[nH]c(N2CCN(c3ncccn3)CC2)nc(N[C@@H]2CCCNC2)c1-c1nc(-c2ccc(F)cc2)cs1` [Example 350, 5-[4-(4-fluorophenyl)-1,3-thiazol-2-yl]-6-[[(3R)-piperidin-3-yl]amino]-2-[4-(pyrimidin-2-yl)piperazin-1-yl]-3,4-dihydropyrimidin-4-one; trifluoroacetic acid]: the pIC50 was 7.68.
